In patent publication US5229362A, “Antibiotic A10255 complex and factors, and process and production therefor” (Eli Lilly and Company, priority 1991, dated 1993):

Test system: rumen-cannulated wethers
Assay: Rumen lactic acidosis in rumen-cannulated wethers switched abruptly to concentrate
Format: in vivo, sheep
Conditions: 60 mg/d; Day 6, 12-hr sample

For `CC[C@@]1([C@@H]2O[C@@H]([C@H]3O[C@@](O)(CO)[C@H](C)C[C@@H]3C)C[C@@H]2C)CC[C@H]([C@]2(C)CC[C@]3(C[C@H](O)[C@@H](C)[C@@H]([C@@H](C)[C@@H](OC)[C@H](C)C(=O)O)O3)O2)O1` [Monensin], the “Rumen pH” value was 5.02 and the “Ruminal TVFA” value was 43.6 mM/l.
